Test results reported in patent US9044421B2, “Treating MUC1-expressing cancers with combination therapies” (GENUS ONCOLOGY, LLC., priority 2012, dated 2015).
Where a SMILES comes first, the peptide text is derived from it. [ ]: non-standard residue; d: D form.

What was measured:
PI3-kinase = details: different cell types (Folks et al., 2008); cited from earlier work
[1] = test system: H-1650 non small cell lung carcinoma cells; test: AlamarBlue cell viability assay, H-1650 cells; type: cell-based
Experimental: FIG. 1. H-1650 non small cell lung carcinoma cells in a 96-well plate were treated with various concentrations of purified GO-203-2C for four days. AlamarBlue dye was added to the cells on day 5, and the absorbance was measured at 570 and 600 nm. A 4-parameter curve was obtained by plotting the percentage reduction of alamarBlue calculated using these absorbance values against the concentration of GO-203-2C used.
alamarBlue assay involves the usage of a fluorometric/colorimetric growth indicator, alamarBlue based on the metabolic activity of cells. As cells grow, the innate metabolic activity results in a chemical reduction of alamarBlue. Continued growth maintains a reduced environment while inhibition of growth maintains an oxidized environment. Live cells cause the change of alamarBlue from oxidized (non-fluorescent, blue) form to reduced (fluorescent, red) form. Data can be collected using either fluorescence-based or absorbance-based instrumentation. Fluorescence is monitored at 530-560 nm excitation wavelength and at 590 nm emission wavelength. Absorbance is monitored at 570 am and 600 nm.
This assay was developed with a 96-well plate using ZR-75-1 or MCF-7 (breast carcinoma cell lines) or H1650 non-small cell lung carcinoma cells at different cell concentrations and the optimal cell number was calculated to be 5,000 cells/well in […] volume. The cell number/well has to be optimized for each cell type to be tested. ZR-75-1 or MCF-7 cells were treated with various concentrations of GO-203-2c, LY294002 or GDC-0941 with 2-fold serial dilutions to obtain a total of 8 different concentrations. Cells in triplicate wells were treated with each concentration of GO-203-2c every day, for 4 days. […] At the end of each hour, absorbance of the plate was measured at 570 nm and 600 nm as reference. A set of blank wells was maintained with medium alone and medium with alamarBlue for the purpose of calculating actual absorbance. Obtained absorbance values were plotted against respective concentrations of GO-2-3-2c. […]

p-AKT = test: Immunoblotting of total cell lysates with anti-phospho-AKT; type: cell-based; details: ZR-75-1 cells, combined with LY294002 (FIG. 8)
Experimental: FIG. 8. ZR-75-1 breast carcinoma cells were treated with GO-203-2C and LY294002 either alone or in combination. Total cell lysates were prepared and analyzed by immunoblotting with anti-phospho-AKT (top panel) or anti-AKT (bottom panel).

p-S6K = test: Immunoblotting of total cell lysates with anti-phospho-S6K; type: cell-based; details: ZR-75-1 cells, combined with GDC-0941 (FIG. 9)
Experimental: FIG. 9. ZR-75-1 breast carcinoma cells were treated with GO-203-2C and GDC-0941 either alone or in combination. Total cell lysates were prepared and analyzed by immunoblotting with anti-phospho-S6K (top panel) or anti-S6K (bottom panel).

| Structure (SMILES) | IC50 (PI3-kinase) | live cells ([1]; at 10 mM) | percent reduction of alamarBlue ([1]; highest concentration tested (10 mM)) | percent reduction of alamarBlue ([1]; lowest concentration tested (0.078 mM), untreated control 55.34%) | effect on p-AKT (p-AKT) | effect on p-S6K (p-S6K) |
| --- | --- | --- | --- | --- | --- | --- |
| CS(=O)(=O)N1CCN(Cc2cc3nc(-c4cccc5[nH]ncc45)nc(N4CCOCC4)c3s2)CC1 [GDC-0941] | 500 to 2000 nM |  |  |  |  |  |
| CC(=O)N[C@H](CCCNC(=N)N)C(=O)N[C@H](CCCNC(=N)N)C(=O)N[C@H](CCCNC(=N)N)C(=O)N[C@H](CCCNC(=N)N)C(=O)N[C@H](CCCNC(=N)N)C(=O)N[C@H](CCCNC(=N)N)C(=O)N[C@H](CCCNC(=N)N)C(=O)N[C@H](CCCNC(=N)N)C(=O)N[C@H](CCCNC(=N)N)C(=O)N[C@H](CS)C(=O)N[C@H](CCC(N)=O)C(=O)N[C@H](CS)C(=O)N[C@H](CCCNC(=N)N)C(=O)N[C@H](CCCNC(=N)N)C(=O)N[C@H](CCCCN)C(=O)N[C@H](CC(N)=O)C(N)=O [GO-203-2C] (Ac-[dR][dR][dR][dR][dR][dR][dR][dR][dR][dC][dQ][dC][dR][dR][dK][dN]-NH2) |  | 12.3% | 6.86% | 55.65% | contributing to the downregulation | contributing to the downregulation |
